Molecular target: human CYP3A4 (Homo sapiens, UniProt P08684)
Assay: In vitro evaluations of CYP3A4 metabolism and inhibition
Type: in vitro ADME

Chain of human CYP3A4 (P08684 whole entry): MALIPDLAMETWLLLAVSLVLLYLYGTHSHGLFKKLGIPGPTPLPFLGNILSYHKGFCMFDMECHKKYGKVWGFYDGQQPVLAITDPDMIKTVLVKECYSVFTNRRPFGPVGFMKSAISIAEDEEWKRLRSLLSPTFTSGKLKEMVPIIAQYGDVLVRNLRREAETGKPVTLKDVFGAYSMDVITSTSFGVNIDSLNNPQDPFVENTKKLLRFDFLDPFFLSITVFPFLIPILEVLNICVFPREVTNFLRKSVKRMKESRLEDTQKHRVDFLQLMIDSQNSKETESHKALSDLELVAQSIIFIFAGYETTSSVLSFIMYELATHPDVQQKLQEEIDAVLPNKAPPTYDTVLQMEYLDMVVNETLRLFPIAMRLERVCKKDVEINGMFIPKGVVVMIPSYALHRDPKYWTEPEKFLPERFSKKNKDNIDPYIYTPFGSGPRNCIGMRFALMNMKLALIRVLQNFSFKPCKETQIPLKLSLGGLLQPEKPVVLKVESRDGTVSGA

For `Cc1cnc(Nc2ccc(OCCN3CCCC3)cc2)nc1Nc1cccc(S(=O)(=O)NC(C)(C)C)c1` [N-tert-butyl-3-[(5-methyl-2-{[4-(2-pyrrolidin-1-ylethoxy)phenyl]amino}pyrimidin-4-yl)amino]benzenesulfonamide], the CYP3A4 inhibition (in vitro data) was “inhibits CYP3A4 in a time-dependent fashion” and the metabolism (in vitro evaluations) was “metabolized by human CYP3A4”.

— patent US20210244735A1, “COMPOSITIONS AND METHODS FOR TREATING MYELOFIBROSIS” (Impact Biomedicines, Inc., priority 2010, published 2021)
